{"source": "patent US20170189465A1", "about": "“Anti Hallucination Drug” (Kracie Pharma, Ltd., priority 2014, published 2017)", "type_in_all_cases": "in vivo", "key": {"[1]": {"tested_on": "hallucinogen-induced head-twitching response in mice", "test": "DOI-induced head-twitching response in mice after oral administration once a day for 14 days", "conditions": "oral once a day for 14 days, DOI 1 mg/kg i.p.", "protocol": "(§1) Four-week-old ICR male mice (17-19 g) were purchased from Japan SLC, Inc. and subjected to the experiment after an acclimatization period of a week. The animals were kept at a room temperature of 23±2° C. at a humidity of 55±10% in a 12-hour cycle of turning on the light at 8:00 and turning off the light at 20:00. The experimental animals were allowed to drink water and eat freely during the period of the experiment.\n(§2) In a physiological saline solution, (+/−) 2,5-dimethoxy-4-iodoamphetamine (DOI: sigma Lot 0.012M4812V), which is a hallucinogen, was dissolved. Immediately after intraperitoneally injecting the solution to the mice at 1 mg/kg, the mice were moved to a breeding cage without a floor mat. After five minutes, the numbers of head-twitches of the mice (used as an indicator of a hallucinatory symptom) were counted for five minutes (Egashira et al., Repeated administration of Yokukansan inhibits DOI-induced head-twitch response and decreases expression of 5-hydroxytryptamine (5-HT) 2A receptors in the prefrontal cortex., Prog Neuropsychopharmacol Biol Psychiatry., 32, 1516-1520, 2008). In this regard, to exclude the influence of external noise or the like on the behavior of the mice, the head-twitches were counted in a soundproof chamber.\nSimilar ICR male mice to those used in Test 1 were randomly divided into eight groups including a normal group, a control group and six test groups. A 0.5% CMC-Na solution was orally administered to the normal group and the control group once a day for 14 days, and the atractylodes rhizome extract at different doses (20, 100 and 500 mg/kg) and the atractylodes lancea rhizome extract at different doses (20, 100 and 500 mg/kg), which were each prepared using a 0.5% CMC-Na solution, were orally administered to the six test groups once a day for 14 days. One hour after the completion of the final oral administration, 1 mg/kg of DOI was intraperitoneally injected to the mice of the control group and the test groups. Then, the head-twitches of the mice were counted in a similar manner as in Test 1. The results of the measurement were tested by the Dunnett's test using one-way analysis of variance for the comparison between multiple groups. Here, when p<0.05, it was determined that the result attained statistical significance.\nThe anti-hallucination actions of atractylenolide III and β-eudesmol were examined by the same method as that of Test 2 except for the points which are especially specified. In this test, atractylenolide III purified in Example 1 and commercial β-eudesmol (Lot. WEG2032, Wako Pure Chemical Industries, Ltd.) were dissolved in corn oil and used. The doses were set based on the average amounts of the compounds contained in the crude drugs and on the doses used in Test 2. Specifically, the doses of atractylenolide III were set at 0.03, 0.15 and 0.7 mg/kg, and the doses of β-eudesmol were set at 0.4, 2.0 and 10 mg/kg.\nThe anti-hallucination actions of atractylone and atractylenolide II were examined by the same method as that of Test 2 except for the points which are especially specified. In this test, atractylone and atractylenolide II purified in Example 1 were dissolved in corn oil and used. The doses of atractylone were set at 0.36, 1.8 and 9.0 mg/kg, and the doses of atractylenolide II were set at 0.03, 0.15 and 0.75 mg/kg.\nThe anti-hallucination action of atractylenolide I was examined by the same method as that of Test 2 except for the points which are especially specified. In this test, atractylenolide I purified in Example 1 was dissolved in corn oil and used. The doses of atractylenolide I were set at 0.03, 0.15 and 0.75 mg/kg."}, "[2]": {"tested_on": "hallucinogen-induced head-twitching response in mice", "test": "DOI-induced head-twitching response in mice after single application (one oral administration)", "conditions": "single oral application, 0.03, 0.15 and 0.75 mg/kg, DOI i.p. after one hour, FIG. 7", "protocol": "as §2\nSimilar ICR male mice to those used in Test 1 were randomly divided into eight groups including a normal group, a control group and six test groups. A 0.5% CMC-Na solution was […], and the atractylodes rhizome extract at different doses ([…]) and the atractylodes lancea rhizome extract at different doses ([…]), which were each prepared using a 0.5% CMC-Na solution, […] […] Then, the head-twitches of the mice were counted in a similar manner as in Test 1. […] Here, when p<0.05, it was determined that the result attained statistical significance. […]"}, "head-twitches of mice": {"tested_on": "head-twitches of mice", "test": "Production of hallucination model mouse with DOI", "conditions": "1 mg/kg intraperitoneally, counted for five minutes after five minutes", "protocol": "as §1, §2"}}}
{"molecule": "C=C1CCC[C@]2(C)CC[C@@H](C(C)(C)O)C[C@@H]12", "note": "[β-eudesmol]", "values": [{"measurement": "number of head-twitches as compared to the control group", "setting": "[1]; 10 mg/kg in corn oil", "result": "decreased significantly"}]}
{"molecule": "atractylenolide II", "values": [{"measurement": "number of head-twitches as compared to the control group", "setting": "[1]; 0.75 mg/kg in corn oil", "result": "decreased significantly"}]}
{"molecule": "C=C1CCC[C@]2(C)Cc3occ(C)c3C[C@@H]12", "note": "[atractylone]", "values": [{"measurement": "number of head-twitches as compared to the control group", "setting": "[1]; 9.0 mg/kg in corn oil", "result": "decreased significantly"}]}
{"molecule": "C=C1CCC[C@]2(C)C=C3OC(=O)C(C)=C3C[C@@H]12", "note": "[atractylenolide I]", "values": [{"measurement": "number of head-twitches as compared to the control group", "setting": "[1]; 0.15 mg/kg in corn oil", "result": "decreased significantly"}, {"measurement": "number of head-twitches as compared to the control group", "setting": "[1]; 0.75 mg/kg in corn oil", "result": "decreased significantly"}]}
{"molecule": "C=C1CCC[C@]2(C)C[C@]3(O)OC(=O)C(C)=C3C[C@@H]12", "note": "[atractylenolide III]", "values": [{"measurement": "number of head-twitches as compared to the control group", "setting": "[1]; 0.15 mg/kg in corn oil", "result": "decreased significantly"}, {"measurement": "number of head-twitches as compared to the control group", "setting": "[1]; 0.7 mg/kg in corn oil", "result": "decreased significantly"}, {"measurement": "number of head-twitches versus the control group", "setting": "[2]", "result": "no significant difference"}]}
{"molecule": "COc1cc(CC(C)N)c(OC)cc1I", "note": "(racemic) [DOI, (+/−) 2,5-dimethoxy-4-iodoamphetamine]", "values": [{"measurement": "numbers of head-twitches compared with normal mice", "setting": "head-twitches of mice", "result": "higher"}]}
